SMILES strings stand for the structures. “Also recorded” adds a separate entry of the source.

One assay concerns alpha-1-antitrypsin. Particulars: through direct interaction of the drug with HOCl; cited from earlier work.
In another assay the target is T1, elastase (Homo sapiens, UniProt P08246).
T1 construct: 15 micrograms of U937 cell cytoplasmic protein extract was mixed with 0.1 microgram of ^32P-2-5A-radio labeled rRNase L; endogenous in cells; host or cells: U937 cells (cytoplasmic protein extract)
T1 sequence (P08246 30-267): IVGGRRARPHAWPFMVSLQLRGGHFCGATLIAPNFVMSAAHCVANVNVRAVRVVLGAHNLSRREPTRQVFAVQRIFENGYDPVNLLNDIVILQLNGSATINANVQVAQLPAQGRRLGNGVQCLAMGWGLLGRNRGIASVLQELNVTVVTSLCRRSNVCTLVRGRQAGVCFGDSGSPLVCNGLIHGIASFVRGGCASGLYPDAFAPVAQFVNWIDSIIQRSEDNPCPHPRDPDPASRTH
Kind of assay: Fragmentation of radio labeled rRNase L by cytoplasmic protein extracts of cefoperazone-treated U937 cells. The class given is cell-based. Particulars: extracts of U937 cells treated 72 hours with 10-1000 micrograms/mL; 15 micrograms extract, 5 minutes at 37 C; FIG. 4. As for the experimental part: (§1) In the first condition (Regimen #1), confluent cultures of U937 cells were allowed to remain in culture for an additional 7 days without feeding or media supplementation in order to induce the cells to begin to undergo apoptosis, resulting in the fragmentation of native RNase L (among other proteins).
Briefly, 15 micrograms of U937 cell cytoplasmic protein extract was mixed with 0.1 microgram of ^32P-2-5A-radio labeled rRNase L for a fixed incubation period (5 minutes) at 37 C. The reaction was terminated by the addition of 2×SDS-PAGE loading buffer, the samples were prepared and electrophoresed as described above and analyzed using densitometry.

Assay [1] concerns RNase L Protein in the Human Monocytic Leukemia Cell Line U937. Kind of assay: RNase L fragmentation (2-5A binding proteins) in U937 cells, treatment Regimen #1. The class given is cell-based. The following applies: FIGS. 2 and 3 (Regimens #1 and #2).
Excerpt: as §1

For the molecule `CCN1CCN(C(=O)N[C@@H](C(=O)N[C@@H]2C(=O)N3C(C(=O)O)=C(CSc4nnnn4C)CS[C@H]23)c2ccc(O)cc2)C(=O)C1=O` [cefoperazone], the “level of inactivation of alpha-1-antitrypsin by activated neutrophils” value in the assay with alpha-1-antitrypsin was “reduce the level of inactivation of alpha-1-antitrypsin”. In addition, the “elastase activity (amount of LMW rRNase L protein generated from pre-labeled HMW rRNase L)” value at elastase was “inhibition occurs in a dose-dependent fashion; also recorded: marked inhibition of elastase activity”. Further, the “production of the low molecular weight fragment of native RNase L protein” value in assay [1] was “inhibition is dose-dependent”.

These data come from patent US7754707B2, “Methods of treatment of chronic immune disease” (R.E.D. Laboratories, N.V./S.A., priority 2002, dated 2010).
